# Measurements as given in PMC10969377, “N-3-Methylbutyl-benzisoselenazol-3(2H)-one Exerts Antifungal Activity In Vitro and in a Mouse Model of Vulvovaginal Candidiasis” (Current Issues in Molecular Biology, 2024).
# Molecular target: T1, Na+, K+-ATPase (Sus scrofa, UniProt P05024)
# T1 construct: gene ATP1A1; purified from pig kidney outer medulla
# Experiment: Na+,K+-ATPase activity inhibition, enzyme purified from pig kidney (Figure S4)
# Type: biochemical
row,Compound,"Na+,K+-ATPase activity inhibition, enzyme purified from pig kidney (Figure S4)"
1,"CC(C)CCn1[se]c2ccccc2c1=O [N-3mb-bs, N-3-methylbutyl-benzisoselenazol-3(2H)-one]","both N-allyl-bs and N-3mb-bs showed Na^+, K^+-ATPase inhibitory activity (purified from pig kidney outer medulla)"
2,"C=CCn1[se]c2ccccc2c1=O [N-allyl-bs, N-allyl-benzisoselenazol-3(2H)-one]","both N-allyl-bs and N-3mb-bs showed Na^+, K^+-ATPase inhibitory activity (purified from pig kidney outer medulla)"
